Assay results from article PMC3261785 (Journal of Medicinal Chemistry, 2011).
Entries after “also recorded” stand apart in the source; their conditions may differ.

Molecular target: human A2AAR (Homo sapiens, UniProt P29274)
Assay: Radioligand binding assay at A2AAR, membranes of HEK-293 cells, [3H]16
Details: comparison within the amino acid conjugate series and with parent 16

Chain of human A2AAR (P29274 whole entry): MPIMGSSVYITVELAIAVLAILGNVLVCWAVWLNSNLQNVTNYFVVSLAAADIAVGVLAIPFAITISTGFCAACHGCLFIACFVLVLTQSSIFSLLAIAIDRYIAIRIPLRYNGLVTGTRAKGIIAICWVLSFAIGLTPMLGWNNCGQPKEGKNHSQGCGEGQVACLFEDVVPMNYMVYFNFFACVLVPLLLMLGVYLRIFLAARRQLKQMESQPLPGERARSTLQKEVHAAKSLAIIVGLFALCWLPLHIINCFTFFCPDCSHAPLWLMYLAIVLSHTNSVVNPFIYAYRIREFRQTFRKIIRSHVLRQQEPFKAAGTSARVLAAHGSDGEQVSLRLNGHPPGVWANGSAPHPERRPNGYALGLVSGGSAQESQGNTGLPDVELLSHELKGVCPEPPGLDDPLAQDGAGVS

| SMILES | Relative A2AAR binding affinity (in words) |
| --- | --- |
| CCNC(=O)[C@H]1O[C@@H](n2cnc3c(N)nc(NCCc4ccc(CCC(=O)N[C@H](Cc5c[nH]cn5)C(=O)O)cc4)nc32)[C@H](O)[C@@H]1O [Compound 42] | most potent; also recorded: some gain in affinity |
| CCNC(=O)[C@H]1O[C@@H](n2cnc3c(N)nc(NCCc4ccc(CCC(=O)N[C@H](CCCNC(=N)N)C(=O)O)cc4)nc32)[C@H](O)[C@@H]1O [Compound 36] | some gain in affinity |
| CCNC(=O)[C@H]1O[C@@H](n2cnc3c(N)nc(NCCc4ccc(CCC(=O)N[C@H](Cc5ccccc5)C(=O)O)cc4)nc32)[C@H](O)[C@@H]1O [Compound 38] | most potent; also recorded: some gain in affinity |
